Values quoted from earlier work in patent US20070134273A1, “Composition and method for the treatment of carcinoma” (priority 2004, published 2007).
Where two headings read alike, the source gives them in different places.

Assays:
[1] = tested on: bladder cancer
[2] = tested on: peripheral blood mononuclear cells, monocytes, and dendritic cells; details: in vitro and in vivo, versus imiquimod (Aldara R-837)
[3] = transurethral resection plus intravesical agent versus transurethral resection alone

SMILES	studies with a significant reduction in tumor progression ([1]; in vivo)	studies with a significant reduction in tumor recurrences ([1]; in vivo)	studies with a significant reduction in tumor progression [1, 3]	studies with a significant reduction in tumor recurrences [1, 3]	potency in inducing cytokines relative to imiquimod [2]
S=P(N1CC1)(N1CC1)N1CC1 [thiotepa]	0 of 3	6 of 10	–	–	–
CO[C@@]12[C@H](COC(N)=O)C3=C(C(=O)C(C)=C(N)C3=O)N1C[C@@H]1N[C@@H]12 [mitomycin]	–	–	0 of 2	2 of 5	–
CCOCc1nc2c(N)nc3ccccc3c2n1CC(C)(C)O [Resiquimod, 4-amino-2-ethoxymethyl-α, α-dimethyl-1H-imidazo[4,5-c]quinoline-1-ethanol]	–	–	–	–	about 100 times
COc1cccc2c1C(=O)c1c(O)c3c(c(O)c1C2=O)C[C@@](O)(C(=O)CO)C[C@@H]3O[C@H]1C[C@H](N)[C@H](O)[C@H](C)O1 [doxorubicin]	–	–	0 of 2	2 of 4	–
